We go through 2 compounds from US20150126368A1, “METHOD OF PROVIDING PLANT WITH STRESS RESISTANCE” (Nippon Soda Co., Ltd., priority 2012, published 2015).

Where two headings read alike, the source gives them in different places.

Common to all, as to assay type: in vivo
Assay [1] deals with Tomato (breed: Momotaro). In words: Evaluation test for relief effects of high temperature injury on tomato. The following applies: sprayed on stem and leaf, 2 days 30° C., then 6 days 40° C. daylight/30° C. dark, vs solvent only. Here is the method: N,N-dimethylformamide based solutions were prepared according to the formulations shown in Table 3 to give chemical solutions for the tests.
Tomato (breed: Momotaro) grown up to the 2.5 leaf stage in a greenhouse was prepared.
The above chemical solution was sprayed to the stem and leaf parts of the above tomato nursery plants in a sufficient amount, and then air dried. They were allowed to grow at 30° C. for 2 days under conditions of 16 hours under a daylight condition and 8 hours under a dark condition. Then, they were allowed to grow for 6 days under conditions of 16 hours under a daylight condition at 40° C. and 8 hours under a dark condition at 30° C.
Disorders were evaluated by 11 levels of disorder indices from 0 (no disorders) to 10 (withering to death).
High temperature injury relief percentages as compared with a region treated with solvent DMF only (Chemical solution 3) were computed by the following formula.
High temperature injury relief percentage=((disorder index of region treated with solvent only)−(disorder index of each treatment region))/(disorder index of region treated with solvent only)×100

Assay [2] relates to Soybean (breed: Enrei). The assay is described as follows: Evaluation test for relief effects of flood injury on soybean. The following applies: flood from 2 days, raw weight 11 days after spray. Here is the method:
Soybean (breed: Enrei, 2 reprications) grown up to the two leaf stage in a greenhouse was prepared.
A water dispersible granule of 30% ascorbyl palmitate and pyraclostrobin adjusted to 40% with N,N-dimethylformamide were diluted with tap water to a predetermined concentration, and the diluted solution was sprayed in a sufficient amount. They were subjected to flood conditions up to immediately below the cotyledon from 2 days after the spray treatment, and the raw weights of an above ground part and a root part of soybean were each measured at the elapsed time of 11 days after the spray treatment. From this, injury relief percentages were computed by the following formula.
Flood injury relief percentage=((raw weight of each treatment region)−(raw weight of untreated region))/(raw weight of untreated region)×100

The test system of assay [3] is Soybean (breed: Enrei). In words: Evaluation test for relief effects of acidity problem on soybean. The following applies: hydroponic medium pH 4 from 2 days, disorder index 11 days after spray. Here is the method:
Soybean (breed: Enrei, 2 reprications) hydroponically grown up to the two leaf stage in a 100 ml flask was prepared.
A water dispersible granule of 30% ascorbyl palmitate and pyraclostrobin dissolved to 40% with N,N-dimethylformamide were diluted with tap water to a predetermined concentration, and the diluted solution was sprayed over the whole nursery plants in a sufficient amount. The water culture medium was adjusted to pH 4 with 1 N hydrochloric acid at the elapsed time of 2 days after the spray treatment, and the above soybean was continuously allowed to grow hydroponically. Disorder in the soybean was investigated at the elapsed time of 11 days after the spray treatment.
For disorder, a degree of necrosis was evaluated by 11 levels of disorder indices from 0 (no necrosis) to 10 (withering to death). From this, problem relief percentages were computed by the following formula.
Acidity problem relief percentage=((disorder index of untreated region)−(disorder index of each treated region))/(disorder index of untreated region)×100

For assay [4], the system named is Pyricularia oryzae. The following applies: 11 days after inoculation.
Assay [5] relates to Soybean (breed: Enrei). In words: Evaluation test for relief effects of salt injury on soybean. The following applies: 0.1% aqueous sodium chloride from 2 days, raw weight 11 days after spray. As to the method: Soybean (breed: Enrei, 2 reprications) hydroponically grown up to the two leaf stage in a greenhouse was prepared.
A water dispersible granule of 30% ascorbic acid palmitate and pyraclostrobin adjusted to 40% with N,N-dimethylformamide were diluted with tap water to a predetermined concentration, and the diluted solution was sprayed over the whole nursery plants in a sufficient amount. After air dried, they were cultivated with normal irrigation in a greenhouse. Then, the irrigation conditions were changed to 0.1% aqueous sodium chloride solution in 2 cm depth from 2 days after the spraying, and cultivated up to 11 days after the spray treatment. Then the raw weights of an aerial part and a root part were each measured. From this, injury relief percentages were computed by the following formula.
Salt injury relief percentage=((raw weight of each treatment region)−(raw weight of untreated region))/(raw weight of untreated region)×100

Assay [6] concerns Cherry tomato (breed; Regina). The assay is described as follows: Evaluation test for relief effects of high temperature injury on cherry tomato. The following applies: 30% water dispersible granule at plant foot at intervals of seven days. As to the method:
Cherry tomato (breed; Regina, 5 reprications) grown in a greenhouse was prepared.
On August 24 at the first inflorescence anthesis, 0.15% of 4-chlorophenoxyacetic acid was sprayed, and a water dispersible granule of 30% ascorbyl palmitate in an amount described in Table 4 was further applied at the plant foot at intervals of seven days. All fruits were harvested on September 28, and the color of a fruit (classified into red and green), the weight of a fruit, and the number of fruits were investigated to calculate the weight per fruit and the percentage of red fruits (%).

Assay [7] deals with Wheat (breed, Norin No. 61). The assay is described as follows: Test for green color maintenance effects (relief of high temperature injury) on wheat. The following applies: appl. amount 1.5 g/m^2 at plant foot, 4 times at intervals of seven days, field. The source says: Wheat (breed, Norin No. 61, 15 plants/m^2/region, 2 reprications) grown in the field was used. A water dispersible granule of 30% ascorbyl palmitate in an amount described in Table 11 was applied to the plant foot 4 times at intervals of seven days from the next day of the ear emergence day in August. The leaf color index of top 4 to 5 leaves of each plant in a treatment region was investigated on September 6 to evaluate maintenance effects of leaf color as compared with that in the untreated region.
Leaf color was evaluated by […] of leaf color indices of 1 (discolored at ¼ or less of the whole), 2 (discolored at ½ or less of the whole) and 3 (discolored at ¾ or more of the whole). From this, the mean leaf color index, and green color maintenance effects were computed by the following formula.
Green color maintenance effect=(leaf color index of untreated region)−(leaf color index of each treatment region))/(leaf color index of untreated region)×100

Where [8] appears, read: Pyraclostrobin 5 ppm spray on rice (Koshihikari) one day before inoculation.
Setting [9] is: ascorbyl palmitate 1000 ppm spray.
Setting [10] is: ascorbyl palmitate 50 ppm spray on rice (Koshihikari) one day before inoculation.

As for `COC(=O)N(OC)c1ccccc1COc1ccn(-c2ccc(Cl)cc2)n1` [Pyraclostrobin, reference compound], in assay [1] (Pyraclostrobin 40 ppm in DMF), the “relief percents of high-temperature injury (%)” value was 35%. In addition, in assay [2] (Pyraclostrobin 50 ppm spray), the “relief percents of flood injury in aerial part(%)” value is on record as 0.0% and the “relief percents of flood injury in root(%)” value came to 3.2%. Moreover, in assay [3] (Pyraclostrobin 50 ppm spray), the “relief percents of acidity problem(%)” value amounted to 12.5%. For the same compound, in assay [4] (setting [8]), the “Number of lesion spots” value was 10 and the “Preventive value(%)” value amounted to 70%. Moreover, in assay [5] (Pyraclostrobin 50 ppm spray), the “relief percents of salt injury in aerial part(%)” value is listed as 3.2% and the “relief percents of salt injury in root(%)” value is on record as 2.5%.

On to `CCCCCCCCCCCCCCCC(=O)OC[C@H](O)[C@H]1OC(=O)C(O)=C1O` [ascorbyl palmitate], for which, in assay [1] (ascorbyl palmitate 800 ppm in DMF), the “relief percents of high-temperature injury (%)” value worked out at 57%. Besides, in assay [6] (dosage 0.1 g/stock), the “color of fruit: Number of green fruits” value worked out at 13, the “color of fruit: Number of red fruits” value worked out at 19, the “color of fruit: Percents of red fruits vs. no treatment region(%)” value came out at 141% and the “color of fruit: Percents of red fruits(%)” value is 59%. Moreover, in assay [6] (dosage 0.1 g/stock), the “yield: Total number of fruits” value was determined as 32, the “yield: Total weight of fruits” value is listed as 304 g, the “yield: weight per fruit vs. no treatment region(%)” value amounted to 138% and the “yield: weight per fruit(g/fruit)” value is recorded as 9.5 g/fruit. Also, in assay [6] (dosage 0.5 g/stock), the “color of fruit: Number of green fruits” value was 4, the “color of fruit: Number of red fruits” value is 29, the “color of fruit: Percents of red fruits vs. no treatment region(%)” value was determined as 209% and the “color of fruit: Percents of red fruits(%)” value was 88%. In assay [6] (dosage 0.5 g/stock), the “yield: Total number of fruits” value is listed as 33, the “yield: Total weight of fruits” value was found to be 342 g, the “yield: weight per fruit vs. no treatment region(%)” value came out at 151% and the “yield: weight per fruit(g/fruit)” value amounted to 10.4 g/fruit. Moreover, in assay [2] (setting [9]), the “relief percents of flood injury in aerial part(%)” value was 2.8% and the “relief percents of flood injury in root(%)” value worked out at 20.4%. Further, the “relief percents of acidity problem(%)” value in assay [3] (setting [9]) was 43.8%. For the same compound, in assay [4] (setting [10]), the “Number of lesion spots” value amounted to 30 and the “Preventive value(%)” value turned out to be 9%. Besides, in assay [5] (setting [9]), the “relief percents of salt injury in aerial part(%)” value came to 20.4% and the “relief percents of salt injury in root(%)” value is on record as 22.2%. For the same compound, the “mean leaf color index” value in assay [7] (index 1 to 3) came out at 1.5. Further, in assay [7] (vs untreated region), the “Green color maintenance effect(%)” value is 25.0%.
